A short description of the data set: Solution state of spinosad in dip water. As to conditions: 5 and 50 ppm. It counts as physicochemical. Here is the method: Two trials were conducted to determine the degree to which spinosad is removed (stripped) from dip water after dipping sheep. In the trials, spinosad dip tank concentrations of 50 ppm and 5 ppm were prepared from an aqueous suspension containing 25 g/L of spinosad. Both trials involved dipping 10 Dorset-cross shorn sheep in 70 gallons (265 liters) of treated water. Each animal was dipped for 30 seconds duration, with the head immersed twice. Samples of dip water were taken for HPLC analysis, initially and after each sheep was dipped. The pH of the water was also determined after each animal was dipped. A dip tank concentration of 5 ppm of spinosad should provide lice control on sheep.

Turning to spinosad, the “Solution state in dip water (in words)” value was “in true solution at 5 and 50 ppm concentration”.

These data come from US6927210B1, “Ectoparasiticidal aqueous suspension formulations of spinosyns” (Eli Lilly and Company, priority 1999, dated 2005).
